# Measurements: ChEMBL document CHEMBL3046815, “Evaluation of fungicides for the management of Botryosphaeria dieback diseases of grapevines” (Pest Manag Sci, 2012)
# Tests used:
# Neofusicoccum luteum [1] = test: Fungicidal activity against Neofusicoccum luteum N(12)2 assessed as mycelial growth inhibition after 48 hr; assay type: functional, organism-based; conditions: pooled result: one value given for 3 cell lines, strains, targets or settings
# Neofusicoccum luteum [2] = test: Fungicidal activity against Neofusicoccum luteum N(12)2 assessed as conidial germination inhibition after 48 hr; assay type: functional, organism-based; conditions: pooled result: one value given for 3 cell lines, strains, targets or settings
# Neofusicoccum luteum [3] = test: Fungicidal activity against Neofusicoccum luteum infected Pinot noir grapevine assessed as non-lesion areas compound applied 24 hr prior inoculation to pruning wound measured after 1 year; assay type: functional; design: concentration or dose not given beside the values
# Neofusicoccum luteum [4] = test: Fungicidal activity against Neofusicoccum luteum infected Pinot noir grapevine assessed as mean pathogen compound applied 24 hr prior inoculation to pruning wound measured after 1 year; assay type: functional; design: concentration or dose not given beside the values
# Neofusicoccum luteum [5] = test: Fungicidal activity against Neofusicoccum luteum infected Pinot noir grapevine assessed as pathogen incidence at area beyond node compound applied 24 hr prior inoculation to pruning wound measured after 1 year; assay type: functional; design: concentration or dose not given beside the values
# Neofusicoccum australe [6] = test: Fungicidal activity against Neofusicoccum australe J-3 assessed as conidial germination inhibition after 48 hr; assay type: functional, organism-based; conditions: pooled result: one value given for 3 cell lines, strains, targets or settings
# Neofusicoccum luteum [7] = test: Fungicidal activity against Neofusicoccum luteum infected Pinot noir grapevine assessed as pathogen incidence at dieback edges compound applied 24 hr prior inoculation to pruning wound measured after 1 year; assay type: functional; design: concentration or dose not given beside the values
# Neofusicoccum luteum [8] = test: Fungicidal activity against Neofusicoccum luteum infected Pinot noir grapevine assessed as dieback lesion length at 45 g AI /100 L applied 24 hr prior inoculation to pruning wound measured after 3 months; assay type: functional
# Neofusicoccum luteum [9] = test: Fungicidal activity against Neofusicoccum luteum infected Pinot noir grapevine assessed as pathogen incidence at dieback sites compound applied 24 hr prior inoculation to pruning wound measured after 1 year; assay type: functional; design: concentration or dose not given beside the values
# Diplodia mutila [10] = test: Fungicidal activity against Diplodia mutila Q assessed as mycelial growth inhibition after 48 hr; assay type: functional, organism-based; conditions: pooled result: one value given for 3 cell lines, strains, targets or settings
# Diplodia mutila [11] = test: Fungicidal activity against Diplodia mutila Q assessed as conidial germination inhibition after 48 hr; assay type: functional, organism-based; conditions: pooled result: one value given for 3 cell lines, strains, targets or settings
# Neofusicoccum luteum [12] = test: Fungicidal activity against Neofusicoccum luteum infected Pinot noir grapevine assessed as pathogen incidence at closest side shoot compound applied 24 hr prior inoculation to pruning wound measured after 6 months; assay type: functional; design: concentration or dose not given beside the values
# Neofusicoccum australe [13] = test: Fungicidal activity against Neofusicoccum australe J-3 assessed as mycelial growth inhibition after 48 hr; assay type: functional, organism-based; conditions: pooled result: one value given for 3 cell lines, strains, targets or settings
# Neofusicoccum luteum [14] = test: Fungicidal activity against Neofusicoccum luteum infected Pinot noir grapevine assessed as pathogen incidence at 45 g AI /100 L applied 24 hr prior inoculation to pruning wound measured after 3 months; assay type: functional
# Neofusicoccum luteum [15] = test: Fungicidal activity against Neofusicoccum luteum infected Pinot noir grapevine assessed as pathogen incidence at 2.5 g AI /100 L applied 24 hr prior inoculation to pruning wound measured after 3 months; assay type: functional
# Neofusicoccum luteum [16] = test: Fungicidal activity against Neofusicoccum luteum infected Pinot noir grapevine assessed as dieback lesion length at 2.5 g AI /100 L applied 24 hr prior inoculation to pruning wound measured after 3 months; assay type: functional
# Neofusicoccum luteum [17] = test: Fungicidal activity against Neofusicoccum luteum infected Pinot noir grapevine assessed as pathogen incidence at 39 g AI /100 L applied 24 hr prior inoculation to pruning wound measured after 3 months; assay type: functional
# Neofusicoccum luteum [18] = test: Fungicidal activity against Neofusicoccum luteum infected Pinot noir grapevine assessed as dieback lesion length at 39 g AI /100 L applied 24 hr prior inoculation to pruning wound measured after 3 months; assay type: functional
# Neofusicoccum luteum [19] = test: Fungicidal activity against Neofusicoccum luteum infected Pinot noir grapevine assessed as pathogen incidence at 4 g AI /100 L applied 24 hr prior inoculation to pruning wound measured after 3 months; assay type: functional
# Neofusicoccum luteum [20] = test: Fungicidal activity against Neofusicoccum luteum infected Pinot noir grapevine assessed as dieback lesion length at 4 g AI /100 L applied 24 hr prior inoculation to pruning wound measured after 3 months; assay type: functional
# Neofusicoccum luteum [21] = test: Fungicidal activity against Neofusicoccum luteum infected Pinot noir grapevine assessed as pathogen incidence at 50 g AI /100 L applied 24 hr prior inoculation to pruning wound measured after 3 months; assay type: functional
# Neofusicoccum luteum [22] = test: Fungicidal activity against Neofusicoccum luteum infected Pinot noir grapevine assessed as dieback lesion length at 50 g AI /100 L applied 24 hr prior inoculation to pruning wound measured after 3 months; assay type: functional
# Neofusicoccum luteum [23] = test: Fungicidal activity against Neofusicoccum luteum infected Pinot noir grapevine assessed as pathogen incidence at 80 g AI /100 L applied 24 hr prior inoculation to pruning wound measured after 3 months; assay type: functional, organism-based
# Neofusicoccum luteum [24] = test: Fungicidal activity against Neofusicoccum luteum infected Pinot noir grapevine assessed as dieback lesion length at 80 g AI /100 L applied 24 hr prior inoculation to pruning wound measured after 3 months; assay type: functional, organism-based
Molecule,EC50 (Neofusicoccum luteum [1]) [mgAi/L],EC50 (Neofusicoccum luteum [2]) [mgAi/L],Activity (Neofusicoccum luteum [3]) [%],Activity (Neofusicoccum luteum [4]) [%],Activity (Neofusicoccum luteum [5]) [%],EC50 (Neofusicoccum australe [6]) [mgAi/L],Activity (Neofusicoccum luteum [7]) [%],Activity (Neofusicoccum luteum [9]) [%],EC50 (Diplodia mutila [10]) [mgAi/L],EC50 (Diplodia mutila [11]) [mgAi/L],Activity (Neofusicoccum luteum [12]) [%],EC50 (Neofusicoccum australe [13]) [mgAi/L],also measured
CCCN(CCOc1c(Cl)cc(Cl)cc1Cl)C(=O)n1ccnc1 [PROCHLORAZ],0.054,46.86,40,43,0,13.23,67,97,0.001,22.97,13,0.098,Activity (Neofusicoccum luteum [8]): 60.5 mm; Activity (Neofusicoccum luteum [14]): 70%
OC(c1ccc(Cl)cc1)(c1cncnc1)c1ccccc1Cl (configuration not stated) [FENARIMOL],0.399,7.44,20,27,0,22.5,40,77,0.076,0.48,0,0.58,Activity (Neofusicoccum luteum [15]): 20%; Activity (Neofusicoccum luteum [16]): 52.8 mm
N#Cc1sc2c(=O)c3ccccc3c(=O)c=2sc1C#N [DITHIANON],73.41,19.11,–,–,–,19.1,–,–,44.87,11.39,–,58.897,Activity (Neofusicoccum luteum [17]): 30%; Activity (Neofusicoccum luteum [18]): 49.6 mm
C[Si](Cn1cncn1)(c1ccc(F)cc1)c1ccc(F)cc1 [FLUSILAZOLE],0.003,1.23,0,0,0,1.34,0,0,0.001,0.56,0,0.002,Activity (Neofusicoccum luteum [19]): 0%; Activity (Neofusicoccum luteum [20]): 41.4 mm
COCC(=O)N(c1c(C)cccc1C)C(C)C(=O)OC (configuration not stated) [METALAXYL],188,218.01,–,–,–,113.11,–,–,61.995,45.72,–,102.6,–
CC(C)NC(=O)N1CC(=O)N(c2cc(Cl)cc(Cl)c2)C1=O [IPRODIONE],0.314,0.04,30,34,0,0.05,53,83,0.247,0.03,3,0.273,Activity (Neofusicoccum luteum [21]): 0%; Activity (Neofusicoccum luteum [22]): 39.9 mm
COPPER HYDROXIDE,–,–,–,–,–,–,–,–,–,–,–,–,Activity (Neofusicoccum luteum [23]): 20%; Activity (Neofusicoccum luteum [24]): 41.9 mm
